Measurements: ChEMBL document CHEMBL1201862, “PubChem BioAssay data set” (2004)
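Method: 48-hour compound exposure of cells in 96-well plates, five concentrations, linear interpolation of endpoints. GI50 = concentration required for 50% inhibition of growth.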 Calls of active or inactive are those of the source. Rule as the data show it: active = GI50 up to about 1.1 µM and inactive = higher.

What was measured:
Assay in all cases: NCI anticancer screen, dose series, 48 h
786-0 = test system: 786-0
A498 = test system: A498
A549 = test system: A549
ACHN = test system: ACHN
CAKI-1 = test system: CAKI-1
CCRF-CEM = test system: CCRF-CEM
COLO 205 = test system: COLO 205
DLD-1 = test system: DLD-1
DMS-114 = test system: DMS-114
DMS-273 = test system: DMS-273
EKVX = test system: EKVX
HCC 2998 = test system: HCC 2998
HCT-116 = test system: HCT-116
HCT-15 = test system: HCT-15
HL-60 = test system: HL-60
HOP-62 = test system: HOP-62
HT-29 = test system: HT-29
IGROV-1 = test system: IGROV-1
K562 = test system: K562
KM-20L2 = test system: KM-20L2
KM12 = test system: KM12
LOX IMVI = test system: LOX IMVI
LXFL 529 = test system: LXFL 529
M14 = test system: M14
M19-MEL = test system: M19-MEL
MOLT-4 = test system: MOLT-4
Malme-3M = test system: Malme-3M
NCI-H460 = test system: NCI-H460
OVCAR-4 = test system: OVCAR-4
OVCAR-8 = test system: OVCAR-8
RPMI-8226 = test system: RPMI-8226
RXF 393 = test system: RXF 393
SF-268 = test system: SF-268
SF-295 = test system: SF-295
SF-539 = test system: SF-539
SK-MEL-2 = test system: SK-MEL-2
SK-MEL-5 = test system: SK-MEL-5
SK-OV-3 = test system: SK-OV-3
SN12C = test system: SN12C
SNB-19 = test system: SNB-19
SNB-75 = test system: SNB-75
SR = test system: SR
SW-620 = test system: SW-620
TK-10 = test system: TK-10
U-251 = test system: U-251
UACC-257 = test system: UACC-257
UACC-62 = test system: UACC-62
UO-31 = test system: UO-31
XF498 = test system: XF498
HOP-18 = test system: HOP-18
HOP-92 = test system: HOP-92
NCI-H226 = test system: NCI-H226
NCI-H23 = test system: NCI-H23
NCI-H522 = test system: NCI-H522
OVCAR-3 = test system: OVCAR-3
OVCAR-5 = test system: OVCAR-5
SK-MEL-28 = test system: SK-MEL-28
SNB-78 = test system: SNB-78

O=[N+]([O-])c1ccc(C(O)/C(=N/O)c2nc3ccc(Cl)cc3nc2O)cc1 (stereo not given)
GI50 (786-0): > 100 µM (inactive)
GI50 (A498): > 100 µM (inactive)
GI50 (A549): > 100 µM (inactive)
GI50 (ACHN): > 100 µM (inactive)
GI50 (CAKI-1): > 100 µM (inactive)
GI50 (CCRF-CEM): > 100 µM (inactive)
GI50 (COLO 205): > 100 µM (inactive)
GI50 (DLD-1): > 100 µM (inactive)
GI50 (DMS-114): > 100 µM (inactive)
GI50 (DMS-273): > 100 µM (inactive)
GI50 (EKVX): > 100 µM (inactive)
GI50 (HCC 2998): > 100 µM (inactive)
GI50 (HCT-116): > 100 µM (inactive)
GI50 (HCT-15): > 100 µM
GI50 (HL-60): > 100 µM (inactive)
GI50 (HOP-62): > 100 µM (inactive)
GI50 (HT-29): > 100 µM (inactive)
GI50 (IGROV-1): > 100 µM (inactive)
GI50 (K562): > 100 µM (inactive)
GI50 (KM-20L2): > 100 µM (inactive)
GI50 (KM12): > 100 µM (inactive)
GI50 (LOX IMVI): > 100 µM (inactive)
GI50 (LXFL 529): > 100 µM (inactive)
GI50 (M14): > 100 µM (inactive)
GI50 (M19-MEL): > 100 µM (inactive)
GI50 (MOLT-4): > 100 µM (inactive)
GI50 (Malme-3M): > 100 µM (inactive)
GI50 (NCI-H460): > 100 µM (inactive)
GI50 (OVCAR-4): > 100 µM (inactive)
GI50 (OVCAR-8): > 100 µM (inactive)
GI50 (RPMI-8226): > 100 µM (inactive)
GI50 (RXF 393): > 100 µM (inactive)
GI50 (SF-268): > 100 µM (inactive)
GI50 (SF-295): > 100 µM (inactive)
GI50 (SF-539): > 100 µM (inactive)
GI50 (SK-MEL-2): > 100 µM (inactive)
GI50 (SK-MEL-5): > 100 µM (inactive)
GI50 (SK-OV-3): > 100 µM (inactive)
GI50 (SN12C): > 100 µM (inactive)
GI50 (SNB-19): > 100 µM (inactive)
GI50 (SNB-75): > 100 µM (inactive)
GI50 (SR): > 100 µM (inactive)
GI50 (SW-620): > 100 µM (inactive)
GI50 (TK-10): > 100 µM (inactive)
GI50 (U-251): > 100 µM (inactive)
GI50 (UACC-257): > 100 µM (inactive)
GI50 (UACC-62): > 100 µM (inactive)
GI50 (UO-31): > 100 µM (inactive)
GI50 (XF498): > 100 µM (inactive)

CN1COc2c(n(C)c(=O)[nH]c2=O)C1
GI50 (786-0): > 100 µM (inactive)
GI50 (A498): > 100 µM (inactive)
GI50 (A549): > 100 µM (inactive)
GI50 (ACHN): > 100 µM (inactive)
GI50 (CAKI-1): > 47.8 µM (inactive)
GI50 (CCRF-CEM): > 61.7 µM (inactive)
GI50 (COLO 205): 59 µM (inactive)
GI50 (DLD-1): > 100 µM (inactive)
GI50 (DMS-114): > 61.2 µM (inactive)
GI50 (DMS-273): 45.7 µM (inactive)
GI50 (EKVX): > 100 µM (inactive)
GI50 (HCC 2998): > 100 µM (inactive)
GI50 (HCT-116): 57.5 µM (inactive)
GI50 (HCT-15): 98.2 µM
GI50 (HL-60): 24.4 µM (inactive)
GI50 (HOP-18): > 100 µM (inactive)
GI50 (HOP-62): > 100 µM (inactive)
GI50 (HOP-92): > 100 µM (inactive)
GI50 (HT-29): > 100 µM (inactive)
GI50 (IGROV-1): > 100 µM (inactive)
GI50 (K562): > 100 µM (inactive)
GI50 (KM-20L2): > 100 µM (inactive)
GI50 (KM12): > 100 µM (inactive)
GI50 (LXFL 529): > 100 µM (inactive)
GI50 (M14): > 100 µM (inactive)
GI50 (M19-MEL): > 100 µM (inactive)
GI50 (MOLT-4): > 100 µM (inactive)
GI50 (Malme-3M): > 100 µM (inactive)
GI50 (NCI-H226): > 100 µM (inactive)
GI50 (NCI-H23): > 100 µM (inactive)
GI50 (NCI-H460): > 100 µM (inactive)
GI50 (NCI-H522): > 100 µM (inactive)
GI50 (OVCAR-3): > 100 µM (inactive)
GI50 (OVCAR-4): > 100 µM (inactive)
GI50 (OVCAR-5): > 100 µM (inactive)
GI50 (OVCAR-8): > 95.7 µM (inactive)
GI50 (RPMI-8226): 26.1 µM (inactive)
GI50 (RXF 393): > 66.7 µM (inactive)
GI50 (SF-268): > 100 µM (inactive)
GI50 (SF-295): > 100 µM (inactive)
GI50 (SF-539): > 100 µM (inactive)
GI50 (SK-MEL-28): > 100 µM (inactive)
GI50 (SK-MEL-2): > 100 µM (inactive)
GI50 (SK-MEL-5): > 100 µM (inactive)
GI50 (SK-OV-3): > 100 µM (inactive)
GI50 (SN12C): > 100 µM (inactive)
GI50 (SNB-19): > 100 µM (inactive)
GI50 (SNB-75): > 100 µM (inactive)
GI50 (SNB-78): > 100 µM (inactive)
GI50 (SR): 27.2 µM (inactive)
GI50 (SW-620): 38.6 µM (inactive)
GI50 (TK-10): > 100 µM (inactive)
GI50 (U-251): > 100 µM (inactive)
GI50 (UACC-257): > 100 µM (inactive)
GI50 (UACC-62): > 80 µM (inactive)
GI50 (UO-31): > 100 µM (inactive)
GI50 (XF498): > 100 µM (inactive)

Nc1nc(SCCC/C=C/I)nc2c1ncn2C1OC(CO)C(O)C1O (stereo not given)
GI50 (786-0): > 202 µM (inactive)
GI50 (A498): > 202 µM (inactive)
GI50 (A549): > 202 µM (inactive)
GI50 (ACHN): > 202 µM (inactive)
GI50 (CAKI-1): > 202 µM (inactive)
GI50 (CCRF-CEM): 98.4 µM (inactive)
GI50 (COLO 205): > 202 µM (inactive)
GI50 (DLD-1): > 202 µM (inactive)
GI50 (DMS-114): > 202 µM (inactive)
GI50 (DMS-273): > 202 µM (inactive)
GI50 (HCT-116): > 202 µM (inactive)
GI50 (HCT-15): > 202 µM
GI50 (HL-60): > 202 µM (inactive)
GI50 (HOP-18): > 202 µM (inactive)
GI50 (HOP-62): > 202 µM (inactive)
GI50 (HOP-92): > 202 µM (inactive)
GI50 (HT-29): > 202 µM (inactive)
GI50 (IGROV-1): > 202 µM (inactive)
GI50 (K562): > 202 µM (inactive)
GI50 (KM-20L2): > 202 µM (inactive)
GI50 (KM12): > 202 µM (inactive)
GI50 (LOX IMVI): > 202 µM (inactive)
GI50 (M14): > 202 µM (inactive)
GI50 (M19-MEL): > 202 µM (inactive)
GI50 (MOLT-4): 99.5 µM (inactive)
GI50 (Malme-3M): > 202 µM (inactive)
GI50 (NCI-H226): > 202 µM (inactive)
GI50 (NCI-H23): > 202 µM (inactive)
GI50 (NCI-H460): > 202 µM (inactive)
GI50 (NCI-H522): > 202 µM (inactive)
GI50 (OVCAR-3): > 202 µM (inactive)
GI50 (OVCAR-4): > 202 µM (inactive)
GI50 (OVCAR-5): > 202 µM (inactive)
GI50 (OVCAR-8): > 202 µM (inactive)
GI50 (RPMI-8226): > 202 µM (inactive)
GI50 (SF-268): > 202 µM (inactive)
GI50 (SF-295): > 202 µM (inactive)
GI50 (SF-539): > 202 µM (inactive)
GI50 (SK-MEL-28): > 202 µM (inactive)
GI50 (SK-MEL-2): > 202 µM (inactive)
GI50 (SK-MEL-5): > 202 µM (inactive)
GI50 (SK-OV-3): > 202 µM (inactive)
GI50 (SN12C): > 202 µM (inactive)
GI50 (SNB-19): > 202 µM (inactive)
GI50 (SNB-75): 78.9 µM (inactive)
GI50 (SNB-78): > 202 µM (inactive)
GI50 (SR): > 202 µM (inactive)
GI50 (SW-620): > 202 µM (inactive)
GI50 (TK-10): > 202 µM (inactive)
GI50 (U-251): > 202 µM (inactive)
GI50 (UACC-257): > 202 µM (inactive)
GI50 (UACC-62): > 202 µM (inactive)
GI50 (UO-31): > 202 µM (inactive)
GI50 (XF498): > 202 µM (inactive)
